Type in all cases: cell-based
One data set relates to REC-1 cells. Kind of data set: CER T cell cytotoxicity against REC-1 mCherry cells with ibrutinib (Incucyte). To be noted: for cytotoxic activity of CER T cells alone (no ibrutinib) / tumor cell killing in combination with ibrutinib: REC-1 cells. An excerpt: FIG. 38: CER1236 T cells have enhanced and more complete cytotoxic effect against Ibrutinib-treated REC-1 MCL cells but not untreated REC-1 MCL cells.
Ibrutinib was washed off prior to co-culture with CER T cells. […] Total fluorescence of REC-1 mCherry cells decreased as cytotoxicity occurred.

The subject of another data set is E7 TCR T cells. Kind of data set: APC-like function after co-culture with PS-positive E7-positive SCC152 cells: HLA-DR/CD25 on E7 TCR T cells. The settings on record: for antigen presentation function versus untransduced T cells: FIG. 52, FIG. 53; for antigen presentation function, overall (FIGS. 50-54): repeated experiments; for activation (HLA-DR) of autologous E7 TCR T cells: after co-culture with E7-positive/PS-positive SCC152 cells, vs untransduced T cells or anti-CD19 CAR T cells. An excerpt:
FIGS. 25A-25B: CER1236 T cells activate E7 TCR T cells via presentation of tumor cell-derived E7 antigen in an HLA-I-dependent manner. […] FIG. 25B: In a separate experiment, induction of HLA-DR on E7 TCR cells following co-culture of CER-1236 with E7 oncoprotein positive/PS-positive SCC152 cells was blocked by HLA-I blocking antibody, but not a control isotype antibody. Bars depict percentage of E7 TCR T cells that express the activation marker, HLA-DR. Error bars show SEM.
FIGS. 36A-36B: CER1236 T cells activate E7 TCR T cells via presentation of tumor cell-derived E7 antigen in an HLA-I-dependent manner. […] FIG. 6B: In a separate experiment, induction of HLA-DR on E7 TCR cells following co-culture of CER-1236 with E7 oncoprotein positive/PS-positive SCC152 cells was blocked by HLA-I blocking antibody, but not a control isotype antibody. Bars depict percentage of E7 TCR T cells that express the activation marker, HLA-DR. Error bars show SEM.
CER1183, CER1161, CER1234 or CER1236 T cells were cultured alone or co-cultured with phosphatidylserine-positive HPV E7 oncoprotein-positive cells (TMEM30A−/− SCC152) for 48 hours, followed by positive selection of T cells and co-culture for a 4 days with cell trace violet labeled-HPV E7 TCR T cells.
CER1183, CER1161, CER1234 or CER1236 T cells were cultured alone or co-cultured with phosphatidylserine-positive HPV E7 oncoprotein-positive cells (TMEM30A−/−SCC152) for 48 hours, followed by positive selection of T cells and co-culture for 4 days (FIG. 51, left graph) or 6 days (FIG. 51, right graph) with cell trace violet labeled-HPV E7 TCR T cells.
CER1183, CER1161, CER1234 or CER1236 T cells were cultured alone or co-cultured with phosphatidylserine-positive HPV E7 oncoprotein-positive cells (TMEM30A−/− SCC152) for 48 hours, followed by positive selection of T cells and co-culture for 4 days with cell trace violet labeled-HPV E7 TCR T cells.
CER1183, CER1161, CER1234 or CER1236 T cells were cultured alone or co-cultured with phosphatidylserine-positive HPV E7 oncoprotein-positive cells (TMEM30A−/−SCC152) for 48 hours, followed by positive selection of T cells and co-culture for 6 days with cell trace violet labeled-HPV E7 TCR T cells.
Antigen-presenting cell (APC)-like function of CER T cells was assessed after a 48-hour co-culture with phosphatidylserine-positive E7 oncoprotein-positive cells. T cells were separated and co-cultured for 4 days with cell trace violet-labeled E7 TCR T cells. The activation marker HLA-DR on E7 TCR T cells was analyzed using flow cytometry. Phosphatidylserine-positive SCC152 squamous cell carcinoma cells were engineered by knockout of the TMEM30A gene (a flippase chaperone required for PS internalization). The role of HLA-I in APC-like function was determined by performing the same experiment in the presence of HLA-I blocking or the corresponding isotype antibodies.
Phosphatidylserine exposure on A2780 ovarian cancer cells upon treatment with the small molecule PARP inhibitors niraparib or olaparib was evaluated by annexin v staining to determine the appropriate drug dose. Phosphatidylserine targeting Tim-4 CER constructs designed to enhance cytotoxicity and target-dependent tumor cell fragment uptake were engineered. CER T cell designs were as follows: CER-1234 (Tim-4/CD28/TLR2/CD3z; SEQ ID NO:18); CER-1236 (Tim-4/CD28/CD3z/TLR2; SEQ ID NO:19); and CER-1250 (Tim-4 binding mutant/CD28/TLR2/CD3z; SEQ ID NO:24). CER-1250 has the same intracellular signaling domains as […] but has a mutated IgV domain with AAAA substitution to abrogate phosphatidylserine binding. Niraparib (0.5 μM) and olaparib (1.5 μM) were used to expose phosphatidylserine on the surface of A2780 cells for CER T cell recognition and cytotoxicity, T-cell activation, and cytokine responses were evaluated. Uptake of antigen by CER-1236 T cells was modeled with human papilloma virus E7 antigen-expressing squamous carcinoma (SCC152) TMEM30A phospholipid flippase knockout cells. […]

Data set [1] relates to phosphatidylethanolamine (PE). Kind of data set: Single induction plate assay: IFN-γ by CER T cells on plate-bound phosphatidylethanolamine (control). From the text:
FIGS. 19A-19C: CER T cells are activated and produce IFN-γ in response to phosphatidylserine engagement in a cell-free in vitro system. FIG. 19A: IFN-γ production in response phosphatidylserine (PS). IFN-γ production was induced in CER-1236 and CER-1234 T cells stimulated with PS (FIG. 19A), but not with phosphatidylethanolamine (PE) (FIG. 19B). […] FIG. 19C: CER1236 T cells are capable of recursive stimulation in vitro. Recursive IFN-γ induction with 3 serial stimulations at the indicated time points following a 24-hour rest after the first stimulation.
FIG. 33A-33C: CER T cells are activated and produce IFN-γ in response to phosphatidylserine engagement in a cell-free in vitro system. FIG. 33A: IFN-γ production in response phosphatidylserine (PS). IFN-γ production was induced in CER-1236 and CER-1234 T cells stimulated with PS (FIG. 33A), but not with phosphatidylethanolamine (PE) (FIG. 33B). […]
CER T-cell activation was assessed by measuring induction of IFN-gamma by plate- and cell-based assays. […] CER T cells were added and IFN-γ levels were measured 24 hours after ligand exposure by ELISA. EC50 concentrations were determined by nonlinear regression (agonist vs. response-variable slope (4 parameters)). […] Cell-based assay: cytokine induction was assessed by multiparametric ELISA using conditioned supernatants harvested after 120 hours from the cytotoxicity assay described below.

For “CER-1234: chimeric Tim4 receptor: Tim4 binding domain-CD28tm-CD28-TLR2 TIR-CD3z, SEQ ID NO:18; tested as transduced T cells”, the cytotoxicity in the data set with REC-1 cells (BTKi treatment in combination) is greater than 90%. Also, in the data set with REC-1 cells, the “cytotoxic activity of CER T cells alone (no ibrutinib)” value is recorded as “limited cytotoxic activity” and the “tumor cell killing in combination with ibrutinib” value is on record as “Tumor cell killing was enhanced”. In addition, in the data set with E7 TCR T cells, the “antigen presentation function versus untransduced T cells” value is on record as “display better antigen presentation function than untransduced T cells” and the “antigen presentation function, overall (FIGS. 50-54)” value was “did not show any antigen presentation function over untransduced T cells in some experiments”. Further, the “IFN-γ production in response to phosphatidylethanolamine” value in data set [1] is recorded as “but not to phosphatidylethanolamine (PE)”.

Consider “CER-1236: chimeric Tim4 receptor: Tim4 binding domain-CD28tm-CD28-CD3z-TLR2 TIR, SEQ ID NO:19; tested as transduced T cells”, for which, in the data set on REC-1 cells, the “cytotoxic activity of CER T cells alone (no ibrutinib)” value was “Some CER1236 T cytotoxicity against untreated REC-1 cells is observed” and the “tumor cell killing in combination with ibrutinib” value is listed as “synergize with ibrutinib to enhance killing of REC-1 mantle cell lymphoma cells”. The “HLA-DR MFI versus untransduced T cells” value in the data set with E7 TCR T cells (FIG. 50, FIG. 51, FIG. 54) was “significant difference in HLA-DR MFI”. In the data set on E7 TCR T cells, the “antigen presentation function versus untransduced T cells” value is “display better antigen presentation function than untransduced T cells”; the “activation (HLA-DR) of autologous E7 TCR T cells” value is on record as “induced HLA-DR on E7 TCR cells”; the “antigen presentation function, overall (FIGS. 50-54)” value is reported as “consistently had better antigen presentation function compared to untransduced T cells”. Besides, in the data set on E7 TCR T cells (HLA-I blocking vs isotype antibody), the “HLA class I dependence of E7 TCR activation” value is reported as “dependent on antigen presentation via the HLA class I system”. For the same substance, the “activation (HLA-DR) of autologous E7 TCR T cells” value in the data set on E7 TCR T cells (listed as CER1236) is “supported greater activation of autologous E7 TCR T cells”. In addition, the “increase of activation status of E7 TCR T cells” value with E7 TCR T cells (exposed to TMEM30A″ SCC152 cancer cells relative to CER-1236 T cells alone) is given as 5 fold. Besides, the “IFN-γ production in response to phosphatidylethanolamine” value in data set [1] is “but not to phosphatidylethanolamine (PE)”.

The values above are taken from US20250127896A1, “CHIMERIC TIM4 RECEPTORS AND USES THEREOF” (CERO THERAPEUTICS HOLDINGS, INC., priority 2021, published 2025).
